According to patent US7285567B2, “Halogenated benzamide derivatives” (Romark Laboratories, L.C., priority 2005, dated 2007):
Like-named read-outs stand apart in the source and are kept apart here. Marks after values point to notes of the source that are not given here.

Experiments:
[1] = system: anaerobic bacteria (all 142 isolates); experiment: CLSI agar dilution MIC, all anaerobic clinical isolates; assay type: cell-based
[2] = system: anaerobic Gram-positive non-sporeforming rods; experiment: CLSI agar dilution MIC, anaerobic clinical isolates; assay type: cell-based; settings: Gram + rods (14 isolates), 48 h
[3] = system: clostridia; experiment: organism not typed; assay type: cell-based; settings: Clostridia (18 isolates), agar dilution, 48 h
[4] = system: Paramyxovirus: Sendai virus; experiment: microbe, parasite or virus in culture; assay type: cell-based; settings: Sendai virus, 37RC cell culture (Table 1)
[5] = system: anaerobic Gram positive cocci; experiment: CLSI agar dilution MIC, anaerobic clinical isolates; assay type: cell-based; settings: Gram + cocci (16 isolates), 48 h
[6] = system: B. fragilis group; experiment: as above; assay type: cell-based; settings: Bacteroides fragilis, B. fragilis gp (40 isolates), 48 h, 35° C.
Description: (§1) Methods. Recent clinical anaerobic isolates (2000 to date) comprised 40 B. fragilis group, 26 Prevotella/Porphyromonas, 28 fusobacteria, 16 anaerobic Gram positive cocci, 14 anaerobic Gram-positive non-sporeforming rods and 18 clostridia. CLSI agar dilution MIC methodology with enriched Brucella blood agar and inocula of 1×10^5 cfu/spot was used. Plates were incubated in an anaerobic glove box at 35° C. for 48 h. Results.

[7] = system: fusobacteria; experiment: as above; assay type: cell-based; settings: Fusobacteria (28 isolates), 48 h
Description: as §1

[8] = system: Prevotella/Porphyromonas; experiment: as above; assay type: cell-based; settings: Prev/Porphy (26 isolates), 48 h
Description: as §1

[9] = system: Herpes Simplex type 1: strain F1; experiment: microbe, parasite or virus in culture; assay type: cell-based, Herpes Simplex virus type 1; settings: Herpes Simplex type 1 strain F1, HEp-2 cell culture
[10] = system: Rotavirus: Simian Rotavirus SA-11; experiment: microbe, parasite or virus in culture; assay type: cell-based; settings: Simian rotavirus SA-11, MA104 cell culture
[11] = system: Coronavirus: canine coronavirus strain S-378; experiment: microbe, parasite or virus in culture; assay type: cell-based; settings: canine coronavirus strain S-378, A72 cell culture
[12] = system: hepatitis C virus (HCV) replicon; experiment: HCV replication in AVA5 replicon cell culture, 3-day assay; assay type: cell-based; settings: for Selectivity Index: CC50/EC50
Description: (§2) Anti-Hepatitis C Virus (HCV) analyses and an assessment of cytotoxicity were performed in a 3-day assay in the HCV replicon-containing human hepatoblastoma cell line, AVA5 (Okuse, C., Rinaudo, J. A., Farrar, K., Wells, F. & Korba, B. E. Enhancement of antiviral activity against hepatitis C virus in vitro by interferon combination therapy. Antivir. Res. 65, 23-34 (2005)) as previously described (Blight, K. J., Kolykhalov, A. A. & Rice, C. M. Efficient initiation of HCV RNA replication in cell culture. Science 290, 1972-1974 (2000)).
(§3) Values presented (±standard deviations [S.D.]) were calculated by linear regression analysis using data combined from all treated cultures. S.D. were calculated using the standard error of regression generated from the linear regression analyses (QuattroPro™). EC50, EC90=drug concentration at which a 2-fold, or a 10-fold depression of HCV RNA (relative to the average levels in untreated cultures), respectively, was observed. CC50=drug concentration at which a 2-fold depression of neutral red dye uptake was observed relative to the average levels in untreated cultures. Selectivity index=CC50/EC50.

[13] = Cytotoxicity in 2.2.15 cells (neutral red dye uptake); assay type: cell-based; settings: human, 2-fold depression of neutral red dye uptake
Description: (§4) Anti-Hepatitis B Virus (HBV) analyses and an assessment of cytotoxicity were performed in a 9-day assay in the chronically-producing HBV human hepatoblastoma cell line, 2.2.15, as previously described (Korba, B. E. & Gerin, J. L. Use of a standardized cell culture assay to assess activities of nucleosides analogues against hepatitis B virus replication. Antivir. Res. 19, 55-70 (1992)).
(§5) Values presented (±standard deviations [S.D.]) were calculated by linear regression analysis using data combined from all treated cultures. S.D. were calculated using the standard error of regression generated from linear regression analyses (QuattroPro™). EC50, EC90=drug concentration at which a 2-fold, or a 10-fold depression of HBV DNA (relative to the average levels in untreated cultures), respectively, was observed, CC50=drug concentration at which a 2-fold depression of neutral red dye uptake (relative to the average levels in untreated cultures) was observed, The EC90 values were used for the calculation of the Selectivity Indexes [S.I.] since at least a 3-fold depression of HBV levels is typically required to achieve statistical significance in this assay system. HBV R.I.=intracellular HBV DNA replication intermediate.

[14] = system: Rhabdovirus: Vesicular stomatitis virus; experiment: microbe, parasite or virus in culture; assay type: cell-based
[15] = Cytotoxicity in AVA5 cells (neutral red dye uptake); assay type: cell-based, human; settings: human, 2-fold depression of neutral red dye uptake
Description: as §2, §3

[16] = system: Hepatitis B Virus (HBV); experiment: HBV replication in 2.2.15 cell culture, 9-day assay; assay type: cell-based; settings: for EC50 / EC90: Hepatitis B virus; for Selectivity Index R.I. / Selectivity Index Virion: calculated with EC90 values (CC50/EC90); for Selectivity Index R.I.: HBV R.I.; for Selectivity Index Virion: virion DNA
Description: as §4, §5

[17] = system: Influenza A: PR8 strain; experiment: microbe, parasite or virus in culture; assay type: cell-based, Influenza A virus
[18] = system: AVA5 cells; experiment: Cytotoxicity in AVA5 cells (neutral red dye uptake); assay type: cell-based, human; settings: neutral red dye uptake, values for interferon
Description: as §2, §3

[19] = All (142 isolates), agar dilution, 48 h

With Cc1cccc(C(=O)Nc2ncc(Br)s2)c1O [RM-4819, 2-(hydroxy)-3-methyl-N-(5-bromo-2-thiazolyl)benzamide] the MIC50 [1, 19] was over 32 µg/mL, the MIC90 [1, 19] was over 32 µg/mL and the “Activity against anaerobic bacteria groups (summary in words)” value ([1]; summary of MIC results) was “without significant activity”. The MIC50 [2] was over 32 µg/mL, the MIC90 [2] was over 32 µg/mL and the MIC50 ([3]; read-out: MIC50) was over 32 µg/mL. For the same molecule, the MIC90 ([3]; read-out: MIC90) was over 32 µg/mL, the EC50 ([4]; Respirovirus muris) was 1.3 µM and the “SI (selectivity index) = CC50/EC50” value ([4]; CC50 by MTT) was over 125. It also gave an MIC50 [5] of over 32 µg/mL, an MIC90 [5] of over 32 µg/mL and an MIC50 [6] of over 32 µg/mL. For the same molecule, the MIC90 [6] was over 32 µg/mL, the MIC50 [7] was over 32 µg/mL and the MIC90 [7] was over 32 µg/mL. The MIC50 [8] was over 32 µg/mL, the MIC90 [8] was over 32 µg/mL and the “SI (selectivity index) = CC50/EC50” value ([9]; CC50 by MTT) was over 250. For the same molecule, the EC50 ([9]; Human alphaherpesvirus 1) was 0.6 µM, the EC50 ([10]; Rotavirus A) was 0.3 µM and the “SI (selectivity index) = CC50/EC50” value ([10]; CC50 by MTT) was over 500. The EC50 ([11]; Alphacoronavirus 1, A-72) was 4.9 µM, the “SI (selectivity index) = CC50/EC50” value ([11]; CC50 by MTT) was over 33 and the “Selectivity Index” value ([12]; AVA5 cells) was 18. For the same molecule, the EC50 ([12]; Hepatitis C virus, AVA5 cells, 2-fold depression of HCV RNA, read-out: EC50) was 8.9 ± 0.7 µM, the EC90 ([12]; Hepatitis C virus, AVA5 cells, 10-fold depression of HCV RNA, read-out: EC90) was 79 ± 8.2 µM and the CC50 at 9 day [13] was over 1000 µM. The EC50 ([14]; MA104) was 1.6 µM, the “SI (selectivity index) = CC50/EC50” value ([14]; MA104 cell culture, CC50 by MTT) was over 100 and the CC50 at 3 day [15] was 164 ± 18 µM. The EC50 ([16]; 2.2.15 cells, 2-fold depression of HBV DNA, read-out: Extracellular Virion DNA EC50) was 3.5 ± 0.5 µM, the EC90 ([16]; 2.2.15 cells, 10-fold depression of HBV DNA, read-out: Extracellular Virion DNA EC90) was 9 ± 0.8 µM and the EC50 ([16]; 2.2.15 cells, intracellular HBV DNA replication intermediate, 2-fold depression, read-out: Intracellular HBV R.I. EC50) was 7.6 ± 0.9 µM. For the same molecule, the EC90 ([16]; 2.2.15 cells, intracellular HBV DNA replication intermediate, 10-fold depression, read-out: Intracellular HBV R.I. EC90) was 22 ± 2.6 µM, the “Selectivity Index R.I.” value [16] was over 46 and the “Selectivity Index Virion” value [16] was over 111. The “SI (selectivity index) = CC50/EC50” value ([17]; Influenza A PR8 strain, MDCK cell culture, CC50 by MTT) was over 17 and the EC50 ([17]; Influenza A virus, PR8, MDCK) was 9.6 µM.
For NC(=O)c1ncn([C@@H]2O[C@H](CO)[C@@H](O)[C@H]2O)n1 [Ribavirin, reference compound], the “Selectivity Index” value ([12]; AVA5 cells) was 0.6, the EC50 ([12]; Hepatitis C virus, Ava5) was 94 ± 10 µM and the EC90 ([12]; Hepatitis C virus, Ava5) was over 100 µM. The CC50 at 3 day [15] was 61 ± 2.9 µM.
In the case of Nc1ccn([C@@H]2CS[C@H](CO)O2)c(=O)n1 [Lamivudine, reference compound], the CC50 at 9 day [13] is reported as 2230 ± 76 µM, the EC50 ([16]; read-out: Extracellular Virion DNA EC50) is reported as 0.058 ± 0.006 µM and the EC90 ([16]; read-out: Extracellular Virion DNA EC90) is reported as 0.164 ± 0.015 µM. For the same molecule, the EC50 ([16]; read-out: Intracellular HBV R.I. EC50) was 0.172 ± 0.02 µM, the EC90 ([16]; read-out: Intracellular HBV R.I. EC90) was 0.66 ± 0.068 µM and the “Selectivity Index R.I.” value [16] was 3377. The “Selectivity Index Virion” value [16] was 12959.
For ∝ - Interferon, the EC50 ([12]; AVA5 cells, 2-fold depression of HCV RNA, values for interferon) was 2.2 ± 0.2 IU/ml, the EC90 ([12]; AVA5 cells, 10-fold depression of HCV RNA, values for interferon) was 8.5 ± 0.6 IU/ml and the CC50 [18] was >10,000*^§ IU/ml.
